Values of other authors in patent US11214548B2, “Cannabinoid receptor modulators” (priority 2009, dated 2022).

Columns and labels:
capsaicin-induced coughs = details: guinea pigs; cited from earlier work
acute and chronic pain = details: animal studies; cited from earlier work

In the case of CCCCC/C=C\C/C=C\C/C=C\C/C=C\CCCC(=O)NCCO [anandamide], the “number of capsaicin-induced coughs” value (capsaicin-induced coughs) is listed as “dose-dependent inhibition” and the “effect against acute and chronic pain from chemical, mechanical, and thermal pain stimuli” value (acute and chronic pain) is listed as “effective”.
